33 compounds from patent US9216173B2, “2-Pyridyl carboxamide-containing spleen tyrosine kinase (SYK) inhibitors” (Merck Sharp & Dohme Corp., priority 2011, dated 2015) can be followed below.

The target in the first assay is T1, recombinant human GST-SYK (Homo sapiens, UniProt P43405).
T1 construct: purchased Carna Biosciences 08-176
The experiment in a line: Homogeneous Time-Resolved Fluorescence (HTRF) assay for the recombinant human Syk enzyme. Type of assay: biochemical. Particulars: GST-hSYK 5 pM, ATP 25 μM, 10-dose titration 10 μM to 0.508 nM; read-out: IC50. Put shortly:
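GST-hSYK fusion phosphorylates a peptide for 45 min at room temperature. Quenched with EDTA buffer containing 2 nM Eu-anti-phosphotyrosine antibody and 70 nM SA-APC. HTRF signal read after 30 min.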
In general terms: In TR-FRET formats the signal depends on donor and acceptor labels being close together.
For orientation: IC50 means the concentration needed to halve the response being measured. Take `Cc1cc(C)nc(Nc2cc(N[C@H]3CC[C@@H]3N)cnc2C(N)=O)c1` (relative stereo) [Example 1.116, rel-5-{[(1S,2S)-2-aminocyclobutyl]amino}-3-[(4,6-dimethylpyridin-2-yl)amino]pyridine-2-carboxamide]: the half-maximal inhibitory concentration (IC50) was determined as 0.055 µM.

The same assay, now with this note: GST-hSYK 5 pM, ATP 25 μM, 10-dose titration 10 μM to 0.508 nM; read-out: rhSYK Activity (IC50 rating).
Turning to `Cc1nc(Nc2cc(N[C@@H]3CCCC[C@@H]3N)cnc2C(N)=O)ccc1F` [Example 1.24, 5-{[(1R,2S)-2-aminocyclohexyl]amino}-3-[(5-fluoro-6-methylpyridin-2-yl)amino]pyridine-2-carboxamide], the IC50 was under 0.01 µM. For `Cc1cc(C)nc(Nc2cc(NC(CN)c3ccccc3)cnc2C(N)=O)c1` (stereo not shown) [Example 1.21, 5-[(2-amino-1-phenylethyl)amino]-3-[(4,6-dimethylpyridin-2-yl)amino]pyridine-2-carboxamide], the half-maximal inhibitory concentration (IC50) was under 0.01 µM. Take `Cc1nc(Nc2cc(N[C@@H]3CCCC[C@@H]3N)cnc2C(N)=O)ccc1C(N)=O` [Example 7, 5-{[(1R,2S)-2-aminocyclohexyl]amino}-3-[(5-carbamoyl-6-methylpyridin-2-yl)amino]pyridine-2-carboxamide]: the IC50 was under 0.01 µM.

In the case of `C[C@H](N)CNc1cnc(C(N)=O)c(Nc2cccc(C(F)(F)F)n2)c1` [Example 1.104, 5-{[(2S)-2-aminopropyl]amino}-3-{[6-(trifluoromethyl)pyridin-2-yl]amino}pyridine-2-carboxamide], the IC50 is under 0.01 µM. Consider `NC(=O)c1ncc(N[C@H]2[C@@H](N)CCCC2(F)F)cc1Nc1cccc(-n2nccn2)n1` [Example 1.83, 5-{[(1S,6S)-6-amino-2,2-difluorocyclohexyl]amino}-3-{[6-(2H-1,2,3-triazol-2-yl)pyridin-2-yl]amino}pyridine-2-carboxamide], for which the IC50 was under 0.01 µM.

In the case of `Cn1ncc(Nc2cc(N[C@@H]3CCCC[C@@H]3N)cnc2C(N)=O)n1` [Example 1.62, 5-{[(1R,2S)-2-aminocyclohexyl]amino}-3-[(2-methyl-2H-1,2,3-triazol-4-yl)amino]pyridine-2-carboxamide], the IC50 was in the range of 0.01 to 0.1 µM. For the compound `Cn1ncc2c(Nc3cc(N[C@@H]4CCCC[C@@H]4N)cnc3C(N)=O)nc(-c3ccccc3)nc21` [Example 1.69, 5-{[(1R,2S)-2-aminocyclohexyl]amino}-3-[(1-methyl-6-phenyl-1H-pyrazolo[3,4-d]pyrimidin-4-yl)amino]pyridine-2-carboxamide], the IC50 is under 0.01 µM. Regarding `Cc1nc(Nc2cc(N[C@@H]3CCCC[C@@H]3N)cnc2C(N)=O)ccc1-c1ccc2c(c1)C(=O)NC2` [Example 3.16, 5-{[(1R,2S)-2-aminocyclohexyl]amino}-3-{[6-methyl-5-(3-oxo-2,3-dihydro-1H-isoindol-5-yl)pyridin-2-yl]amino}pyridine-2-carboxamide], the concentration for half-maximal inhibition (IC50) was under 0.01 µM. As to `CCn1ccc(Nc2cc(N[C@@H]3CCCC[C@@H]3N)cnc2C(N)=O)n1` [Example 1.49, 5-{[(1R,2S)-2-aminocyclohexyl]amino}-3-[(1-ethyl-1H-pyrazol-3-yl)amino]pyridine-2-carboxamide], the IC50 lay within 0.01 to 0.1 µM. On to `COc1ccc(Nc2cc(N[C@@H]3CCCC[C@@H]3N)cnc2C(N)=O)nc1C` [Example 1.111, 5-{[(1R,2S)-2-aminocyclohexyl]amino}-3-[(5-methoxy-6-methylpyridin-2-yl)amino]pyridine-2-carboxamide], for which the IC50 was under 0.01 µM. As for `NC(=O)c1ncc(N[C@@H]2CCCC[C@@H]2N)cc1Nc1ccnc(C2CC2)n1` [Example 1.129, 5-{[(1R,2S)-2-aminocyclohexyl]amino}-3-[(2-cyclopropylpyrimidin-4-yl)amino]pyridine-2-carboxamide], the 50% inhibitory concentration (IC50) is under 0.01 µM. Consider `Cc1cc(Nc2cc(N[C@@H]3CCCC[C@@H]3N)cnc2C(N)=O)nc(C)n1` [Example 1.125, 5-{[(1R,2S)-2-aminocyclohexyl]amino}-3-[(2,6-dimethylpyrimidin-4-yl)amino]pyridine-2-carboxamide], for which the IC50 is under 0.01 µM. On the same count and under the same terms, the same measure for `Cc1cccc(Nc2cc(NCCN)cnc2C(N)=O)n1` [Example 1.4, 5-[(2-aminoethyl)amino]-3-[(6-methylpyridin-2-yl)amino]pyridine-2-carboxamide]: 0.01 to 0.1 µM. For the compound `Cc1cc(C)nc(Nc2cc(NC(=O)CN)cnc2C(N)=O)c1` [Example 10, 3-[(4,6-dimethylpyridin-2-yl)amino]-5-(glycylamino)pyridine-2-carboxamide], the IC50 fell in the range of 0.1 to 1 µM. With `Cc1nc(Nc2cc(N[C@@H]3CCCC[C@@H]3N)cnc2C(N)=O)ccc1-c1ccc2c(cnn2C)c1` [Example 3.18, 5-{[(1R,2S)-2-aminocyclohexyl]amino}-3-{[6-methyl-5-(1-methyl-1H-indazol-5-yl)pyridin-2-yl]amino}pyridine-2-carboxamide], the IC50 is under 0.01 µM. As to `C[C@H](N)CNc1cnc(C(N)=O)c(Nc2ccn(C)n2)c1` [Example 1.92, 5-{[(2S)-2-aminopropyl]amino}-3-[(1-methyl-1H-pyrazol-3-yl)amino]pyridine-2-carboxamide], the IC50 was 0.01 to 0.1 µM.

Regarding `COc1ccc(-n2ccc(Nc3cc(N[C@@H]4CCCC[C@@H]4N)cnc3C(N)=O)n2)cc1` [Example 1.72, 5-{[(1R,2S)-2-aminocyclohexyl]amino}-3-{[1-(4-methoxyphenyl)-1H-pyrazol-3-yl]amino}pyridine-2-carboxamide], the IC50 was under 0.01 µM. For the compound `CCc1cccc(Nc2cc(NC[C@H](C)N)cnc2C(N)=O)n1` [Example 1.94, 5-{[(2S)-2-aminopropyl]amino}-3-[(6-ethylpyridin-2-yl)amino]pyridine-2-carboxamide], the half-inhibitory concentration (IC50) was under 0.01 µM. On to `COC[C@H](N)CNc1cnc(C(N)=O)c(Nc2ccn(-c3ccc(F)cc3)n2)c1` [Example 1.99, 5-{[(2R)-2-amino-3-methoxypropyl]amino}-3-{[1-(4-fluorophenyl)-1H-pyrazol-3-yl]amino}pyridine-2-carboxamide], for which the IC50 was under 0.01 µM.

`Cc1nc(Nc2cc(N[C@@H]3CCCC[C@@H]3N)cnc2C(N)=O)ccc1OC(C)C` [Example 5.1, 5-{[(1R,1S)-2-aminocyclohexyl]amino}-3-{[6-methyl-5-(propan-2-yloxy)pyridin-2-yl]amino}pyridine-2-carboxamide]: the IC50 was under 0.01 µM.

For `Cc1cc(C)nc(Nc2cc(N[C@H]3CC[C@@H]3N)cnc2C(N)=O)c1` (relative stereo) [Example 1.116, rel-5-{[(1S,2S)-2-aminocyclobutyl]amino}-3-[(4,6-dimethylpyridin-2-yl)amino]pyridine-2-carboxamide], the IC50 was 0.01 to 0.1 µM. For `NC(=O)c1ncc(N[C@@H]2CCCC[C@@H]2N)cc1Nc1cccc(F)n1` [Example 1.48, 5-{[(1R,2S)-2-aminocyclohexyl]amino}-3-[(6-fluoropyridin-2-yl)amino]pyridine-2-carboxamide], the concentration for half-maximal inhibition (IC50) was under 0.01 µM. Regarding `Cc1nc(Nc2cc(N[C@@H]3CCCC[C@@H]3N)cnc2C(N)=O)ccc1-c1ccc(C(=O)O)cc1` [Example 3.5, 4-{6-[(5-{[(1R,2S)-2-aminocyclohexyl]amino}-2-carbamoylpyridin-3-yl)amino]-2-methylpyridin-3-yl}benzoic acid], the IC50 is under 0.01 µM.

As for `Cc1nc(Nc2cc(N[C@@H]3CCCC[C@@H]3N)cnc2C(N)=O)ccc1-c1ccc2c(c1)n(C)c(=O)n2C` [Example 3.31, 5-{[(1R,2S)-2-aminocyclohexyl]amino}-3-{[5-(1,3-dimethyl-2-oxo-2,3-dihydro-1H-benzimidazol-5-yl)-6-methylpyridin-2-yl]amino}pyridine-2-carboxamide], the 50% inhibitory concentration (IC50) was under 0.01 µM.

For the compound `Cc1nc(Nc2cc(N[C@@H]3CCCC[C@@H]3N)cnc2C(N)=O)ccc1Br` [Example 1.31, 5-{[(1R,2S)-2-aminocyclohexyl]amino}-3-[(5-bromo-6-methylpyridin-2-yl)amino]pyridine-2-carboxamide], the half-maximal inhibitory concentration (IC50) is under 0.01 µM. `Cc1nc(Nc2cc(N[C@@H]3CCCC[C@@H]3N)cnc2C(N)=O)ccc1-c1cccc(C(O)C(F)(F)F)c1` (stereo partly drawn) [Example 3.11, 5-{[(1R,2S)-2-aminocyclohexyl]amino}-3-({6-methyl-5-[3-(2,2,2-trifluoro-1-hydroxyethyl)phenyl]pyridin-2-yl}amino)pyridine-2-carboxamide]: the half-maximal inhibitory concentration (IC50) is under 0.01 µM. `Cc1cccc(-n2ccc(Nc3cc(N[C@@H]4CCCC[C@@H]4N)cnc3C(N)=O)n2)c1` [Example 1.80, 5-{[(1R,2S)-2-aminocyclohexyl]amino}-3-{[1-(3-methylphenyl)-1H-pyrazol-3-yl]amino}pyridine-2-carboxamide]: the concentration for half-maximal inhibition (IC50) was under 0.01 µM. For the compound `NCCNc1cnc(C(N)=O)c(Nc2cccc(-n3nccn3)n2)c1` [Example 1.58, 5-[(2-aminoethyl)amino]-3-{[6-(2H-1,2,3-triazol-2-yl)pyridin-2-yl]amino}pyridine-2-carboxamide], the IC50 is under 0.01 µM.

`NC(=O)c1ncc(N[C@@H]2CCCC[C@@H]2N)cc1Nc1ccc2ccccc2n1` [Example 1.9, 5-{[(1R,2S)-2-aminocyclohexyl]amino}-3-(quinolin-2-ylamino)pyridine-2-carboxamide]: the IC50 was under 0.01 µM. As for `COc1cccc(Nc2cc(N[C@@H]3CCCC[C@@H]3N)cnc2C(N)=O)n1` [Example 1.13, 5-{[(1R,2S)-2-aminocyclohexyl]amino}-3-[(6-methoxypyridin-2-yl)amino]pyridine-2-carboxamide], the 50% inhibitory concentration (IC50) was under 0.01 µM. For the compound `Cc1cc(C)nc(Nc2cc(NS(=O)(=O)CCN)cnc2C(N)=O)c1` [Example 19, 5-{[(2-aminoethyl)sulfonyl]amino}-3-[(4,6-dimethylpyridin-2-yl)amino]pyridine-2-carboxamide], the concentration for half-maximal inhibition (IC50) fell in the range of 0.1 to 1 µM. For the compound `Cc1cc(C)nc(Nc2cc(N[C@H]3[C@@H](N)CCCC3(F)F)cnc2C(N)=O)c1` [Example 1.47, 5-{[(1S,6S)-6-amino-2,2-difluorocyclohexyl]amino}-3-[(4,6-dimethylpyridin-2-yl)amino]pyridine-2-carboxamide], the 50% inhibitory concentration (IC50) is under 0.01 µM. Turning to `Cc1cc(Nc2cc(N[C@@H]3CCCC[C@@H]3N)cnc2C(N)=O)nc(-c2cnn3c2CCCC3)c1` [Example 1.113, 5-{[(1R,2S)-2-aminocyclohexyl]amino}-3-{[4-methyl-6-(4,5,6,7-tetrahydropyrazolo[1,5-a]pyridin-3-yl)pyridin-2-yl]amino}pyridine-2-carboxamide], the IC50 was under 0.01 µM.
